# Key:
# [1] = molecular target: Cruzipain (Trypanosoma cruzi) (UniProt P25779); assay: Inhibition of Trypanosoma cruzi C-terminal truncated cruzain expressed in DH5alpha Escherichia coli at 100 uM by well-microplate spectrophotometry
# [2] = molecular target: Cruzipain (Trypanosoma cruzi, UniProt P25779); assay: Inhibition of Trypanosoma cruzi C-terminal truncated cruzain expressed in DH5alpha Escherichia coli by well-microplate spectrophotometry
# Cruzipain, sequence (P25779 whole entry, the tested form may be a part): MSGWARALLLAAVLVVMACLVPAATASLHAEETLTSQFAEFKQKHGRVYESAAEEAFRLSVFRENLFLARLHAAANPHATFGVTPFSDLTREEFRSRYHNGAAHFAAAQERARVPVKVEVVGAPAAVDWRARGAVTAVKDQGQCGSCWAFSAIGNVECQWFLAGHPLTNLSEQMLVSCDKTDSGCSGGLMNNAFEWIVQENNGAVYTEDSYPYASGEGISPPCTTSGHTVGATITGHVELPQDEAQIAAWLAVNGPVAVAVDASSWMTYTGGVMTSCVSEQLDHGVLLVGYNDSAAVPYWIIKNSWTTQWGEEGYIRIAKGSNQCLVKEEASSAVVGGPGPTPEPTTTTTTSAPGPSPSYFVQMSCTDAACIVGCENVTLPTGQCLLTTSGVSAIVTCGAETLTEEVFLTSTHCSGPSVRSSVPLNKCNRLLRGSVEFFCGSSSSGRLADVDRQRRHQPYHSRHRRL
# Cruzipain (Trypanosoma cruzi), sequence (P25779 123-467 limits assumed): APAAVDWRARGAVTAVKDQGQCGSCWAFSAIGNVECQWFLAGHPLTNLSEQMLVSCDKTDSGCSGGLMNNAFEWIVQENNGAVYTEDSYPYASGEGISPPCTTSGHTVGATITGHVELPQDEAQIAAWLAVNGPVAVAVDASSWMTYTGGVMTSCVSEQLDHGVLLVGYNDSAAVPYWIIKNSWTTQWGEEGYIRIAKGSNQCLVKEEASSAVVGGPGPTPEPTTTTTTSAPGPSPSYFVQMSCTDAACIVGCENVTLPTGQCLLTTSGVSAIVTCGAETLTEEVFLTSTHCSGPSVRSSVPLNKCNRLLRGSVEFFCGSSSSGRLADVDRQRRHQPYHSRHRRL
Compound,inhibition [1] [%],IC50 [2] [µM]
Cc1ccc(/C=N/Nc2nccc(C(F)(F)F)n2)cc1,40,> 100
COc1ccc(/C=N/Nc2nccc(C(F)(F)F)n2)cc1,40,> 100
O=[N+]([O-])c1ccc(/C=N/Nc2nccc(C(F)(F)F)n2)cc1,50,100
COc1ccccc1/C=N/Nc1nc(C)cc(C(F)(F)F)n1,20,> 150
Cc1cc(C(F)(F)F)nc(N/N=C/c2ccccc2C)n1,45,> 100
FC(F)(F)c1ccnc(N/N=C/c2ccccc2)n1,30,> 150

# Now from value to compound:
inhibition [1] [%],IC50 [2] [µM],Compound
45,> 100,Cc1ccccc1/C=N/Nc1nccc(C(F)(F)F)n1
60,100,Cc1cc(C(F)(F)F)nc(N/N=C/c2ccc(Cl)cc2)n1
80,85,FC(F)(F)c1ccnc(N/N=C/c2ccc(Cl)cc2)n1
